# Reference: ChEMBL document CHEMBL1129258, “Synthesis and structure-activity relationships of 2-pyridones: a novel series of potent DNA gyrase inhibitors as antibacterial agents” (J Med Chem, 1996)
# Experiments:
# [1] = biological target: T1, DNA gyrase (Escherichia coli) (UniProt P0AES6+P0AES4); experiment: In vitro antibacterial activity against gram-negative organism […] ATCC 13048; type: functional; details: Enterobacter aerogenes
# [2] = biological target: T1, DNA gyrase (Escherichia coli); experiment: In vitro antibacterial against gram-negative organism Escherichia coli JUHL; type: functional; details: Escherichia coli K-12
# [3] = biological target: T1, DNA gyrase (Escherichia coli); experiment: In vitro antibacterial activity against gram-negative organism Klebsiella pneumoniae ATCC 8045; type: functional
# [4] = biological target: T2, DNA gyrase (Staphylococcus aureus) (UniProt P0A0K8+P20831); experiment: In vitro antibacterial activity against gram-positive organism Staphylococcus aureus ATCC 6538p; type: functional
# [5] = biological target: T1, DNA gyrase (Escherichia coli); details: Escherichia coli K-12
# Description: Concentration which causes 50% of the gyrase (Escherichia coli H560)-mediated maximal DNA cleavage.
# Streptococcus pyogenes = experiment: In vitro antibacterial activity against gram-positive organism Streptococcus pyogenes EES61; type: functional; details: Streptococcus pyogenes; read-out: MIC
# [6] = biological target: T2, DNA gyrase (Staphylococcus aureus); experiment: In vitro antibacterial activity against gram-positive organism Staphylococcus aureus NCTC-10649M; type: functional
# [7] = In vitro antibacterial activity against gram-negative organism Pseudomonas aeruginosa 5007; type: functional
# [8] = biological target: T1, DNA gyrase (Escherichia coli); experiment: In vitro antibacterial activity against gram-positive organism Enterococcus faecium ATCC 8043; type: functional
# [9] = biological target: T1, DNA gyrase (Escherichia coli); experiment: In vitro antibacterial activity against gram-positive organism Streptococcus bovis A-5169; type: functional; details: Streptococcus equinus
# [10] = In vitro antibacterial activity against gram-negative organism Pseudomonas aeruginosa DPHD-2862; type: functional; details: Pseudomonas aeruginosa; read-out: MIC
# [11] = biological target: T1, DNA gyrase (Escherichia coli); experiment: In vitro antibacterial activity against gram-negative organism Prov. stuartii CMX-640; type: functional; details: Providencia stuartii
# [12] = biological target: T2, DNA gyrase (Staphylococcus aureus); experiment: In vitro antibacterial activity against gram-positive organism Staphylococcus aureus 1775; type: functional
# [13] = Pseudomonas aeruginosa, read-out: MIC
# T2 sequence (P0A0K8 2-644 limits assumed): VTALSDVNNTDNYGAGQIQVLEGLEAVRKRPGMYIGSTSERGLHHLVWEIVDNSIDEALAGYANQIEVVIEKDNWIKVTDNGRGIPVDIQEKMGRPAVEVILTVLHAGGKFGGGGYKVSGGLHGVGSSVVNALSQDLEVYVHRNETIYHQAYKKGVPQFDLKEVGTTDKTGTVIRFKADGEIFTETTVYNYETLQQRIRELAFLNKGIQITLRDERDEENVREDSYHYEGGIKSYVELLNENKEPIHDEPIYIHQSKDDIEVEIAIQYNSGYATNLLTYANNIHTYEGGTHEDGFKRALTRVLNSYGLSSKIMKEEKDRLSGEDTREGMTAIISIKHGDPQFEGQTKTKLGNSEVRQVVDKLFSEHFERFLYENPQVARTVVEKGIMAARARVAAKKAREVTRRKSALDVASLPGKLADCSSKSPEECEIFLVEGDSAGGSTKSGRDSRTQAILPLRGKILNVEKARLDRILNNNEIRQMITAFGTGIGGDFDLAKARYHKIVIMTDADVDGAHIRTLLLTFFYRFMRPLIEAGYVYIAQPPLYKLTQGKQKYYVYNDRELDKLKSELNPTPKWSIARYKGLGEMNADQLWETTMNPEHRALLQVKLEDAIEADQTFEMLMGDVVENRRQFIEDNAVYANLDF
# T2 sequence (P20831 whole entry partner): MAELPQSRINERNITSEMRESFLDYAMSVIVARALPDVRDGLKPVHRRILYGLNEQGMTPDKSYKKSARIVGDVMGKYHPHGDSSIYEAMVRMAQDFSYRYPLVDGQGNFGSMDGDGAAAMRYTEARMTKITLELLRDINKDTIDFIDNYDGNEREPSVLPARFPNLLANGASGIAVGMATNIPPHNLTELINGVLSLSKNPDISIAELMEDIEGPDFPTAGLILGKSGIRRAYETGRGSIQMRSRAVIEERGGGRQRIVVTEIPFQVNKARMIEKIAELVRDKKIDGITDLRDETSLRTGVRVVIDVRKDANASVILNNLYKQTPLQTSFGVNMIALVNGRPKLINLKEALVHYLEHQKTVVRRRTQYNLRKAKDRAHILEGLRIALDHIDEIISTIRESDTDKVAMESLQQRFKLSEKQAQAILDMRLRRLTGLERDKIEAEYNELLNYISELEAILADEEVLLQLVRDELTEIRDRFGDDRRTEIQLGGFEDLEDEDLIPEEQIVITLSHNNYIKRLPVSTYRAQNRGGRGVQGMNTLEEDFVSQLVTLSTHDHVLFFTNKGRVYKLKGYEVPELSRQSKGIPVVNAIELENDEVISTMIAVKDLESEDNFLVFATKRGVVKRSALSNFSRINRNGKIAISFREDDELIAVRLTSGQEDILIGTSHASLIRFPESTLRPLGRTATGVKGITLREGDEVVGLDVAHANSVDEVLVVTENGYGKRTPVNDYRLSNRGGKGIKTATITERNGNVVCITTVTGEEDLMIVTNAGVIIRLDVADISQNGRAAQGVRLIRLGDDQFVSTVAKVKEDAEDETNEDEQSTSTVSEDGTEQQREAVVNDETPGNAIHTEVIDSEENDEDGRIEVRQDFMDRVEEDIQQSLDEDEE
Structure (SMILES),MIC [1] [µg/mL],MIC [2] [µg/mL],MIC [3] [µg/mL],MIC [4] [µg/mL],CC50 [5] [µg/mL],MIC (Streptococcus pyogenes) [µg/mL],MIC [6] [µg/mL],"MIC [7, 13] [µg/mL]",MIC [8] [µg/mL],MIC [9] [µg/mL],MIC [10] [µg/mL],MIC [11],MIC [12] [µg/mL],MIC [7] [pug ml-1]
O=C(O)c1cc(C2CC2)c2cc(N3CCNCC3)c(F)cn2c1=O,0.05,0.01,0.01,0.2,0.15,1.56,0.39,0.39,0.78,3.1,25,1.56 µg/mL,50,
O=C(O)c1cc(C2CC2)c2nc(N3CCNCC3)c(F)cn2c1=O,0.05,0.05,0.05,0.78,2,12.5,1.56,0.39,12.5,12.5,100,12.5 µg/mL,50,
C[C@H]1C[C@H](N)CN1c1nc2c(-c3ccc(F)cc3F)cc(C(=O)O)c(=O)n2cc1F,0.1,0.02,0.01,0.1,0.5,0.78,0.1,0.39,0.78,1.56,50,6.2 µg/mL,50,
Cc1c(N2CCC(n3ccnn3)C2)c(F)cn2c(=O)c(C(=O)O)cc(C3CC3)c12 (stereo unspecified),0.2,0.01,0.05,0.01,0.07,0.05,0.01,0.39,0.05,0.2,12.5,0.39 µg/mL,0.78,
CN1CCN(c2nc3c(C4CC4)cc(C(=O)O)c(=O)n3cc2F)CC1,0.39,0.2,0.1,1.56,1,12.5,0.78,3.1,12.5,50,> 100,50 µg/mL,100,
Cc1c(F)c(N2CCC(N)C2)cc2c(C3CC3)cc(C(=O)O)c(=O)n12 (stereo unspecified),0.39,0.2,0.1,0.78,10,3.1,1.56,1.56,6.2,6.2,100,12.5 µg/mL,50,
Cc1c(N2CC(N)C2)c(F)cn2c(=O)c(C(=O)O)cc(C3CC3)c12,0.05,0.01,0.01,0.1,1.5,0.39,0.05,,0.2,0.78,12.5,1.56 µg/mL,6.2,0.2
Cc1c(N2C[C@H]3CCC[C@H](N)[C@H]3C2)c(F)cn2c(=O)c(C(=O)O)cc(C3CC3)c12,0.1,0.02,0.02,0.005,0.3,0.02,0.005,,0.02,0.01,6.2,0.78 µg/mL,0.39,0.39
COc1c(N2CCC(N)C2)c(F)cn2c(=O)c(C(=O)O)cc(C3CC3)c12 (stereo unspecified),0.05,0.02,0.01,0.05,0.3,0.2,0.05,0.39,0.2,0.39,3.1,1.56 µg/mL,3.1,
NC1CCN(c2nc3c(-c4c(F)c(F)c(F)c(F)c4F)cc(C(=O)O)c(=O)n3cc2F)C1 (stereo unspecified),6.2,6.2,3.1,50,12.5,> 100,50,50,> 100,> 100,> 100,> 100 pug ml-1,> 100,
CCc1cc(C(=O)O)c(=O)n2cc(F)c(N3CCC(N)C3)c(C)c12 (stereo unspecified),0.05,0.01,0.02,0.1,3.2,0.39,0.1,0.2,0.2,0.78,12.5,0.78 µg/mL,12.5,
Cc1c(NCCN)c(F)cn2c(=O)c(C(=O)O)cc(C3CC3)c12,0.39,0.2,0.2,0.78,0.8,6.2,1.56,0.78,3.1,12.5,50,6.2 µg/mL,> 100,
